From patent publication US5525604A, “4-aminopyrimidine derivatives” (Ono Pharmaceutical Co., Ltd., priority 1994, dated 1996) come the findings set out here.

pIC50: −log10 of the molar value. Where a name gives a salt, the structure may show the parent alone.

In experiment [1] the target is cGMP-PDE (Homo sapiens, UniProt O76074). Kind of experiment: Inhibitory effect on cGMP-PDE (PDE IC isolated from human platelets, 3H-cGMP substrate). It counts as biochemical. The settings on record: 0.2 μM 3H-cGMP, pH 8.0, 2.5% DMSO.
In experiment [2] the target is T1, TXA2 synthetase (Rattus norvegicus, UniProt P49430).
T1 construct: whole blood was collected from abdominal aorta; from tissue; host or cells: heparinized whole blood of male Wistar rats (mainly platelets)
T1 sequence (P49430 1-533): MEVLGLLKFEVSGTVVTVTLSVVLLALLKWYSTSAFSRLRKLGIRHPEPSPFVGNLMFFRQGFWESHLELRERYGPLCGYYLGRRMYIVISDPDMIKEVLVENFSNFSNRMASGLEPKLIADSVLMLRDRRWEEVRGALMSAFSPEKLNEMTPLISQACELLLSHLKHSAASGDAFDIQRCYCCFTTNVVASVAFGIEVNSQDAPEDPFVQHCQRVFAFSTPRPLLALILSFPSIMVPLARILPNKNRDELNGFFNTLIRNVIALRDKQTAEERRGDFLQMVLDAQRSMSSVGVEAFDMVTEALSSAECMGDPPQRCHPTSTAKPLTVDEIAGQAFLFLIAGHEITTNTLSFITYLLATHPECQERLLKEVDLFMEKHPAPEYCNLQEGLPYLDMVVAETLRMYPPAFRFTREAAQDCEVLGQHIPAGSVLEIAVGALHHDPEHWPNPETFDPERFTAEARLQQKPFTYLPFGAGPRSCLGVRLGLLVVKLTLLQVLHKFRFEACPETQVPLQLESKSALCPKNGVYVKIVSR
Kind of experiment: Inhibitory effect on TXA2 synthetase (TXB2 by EIA in A23187-stimulated rat whole blood). It is filed as cell-based, rat (Male Wistar rats). The settings on record: rat heparinized whole blood, Ca ionophore A23187, TXB2 by EIA, 37° C. The method, then:
(2) Inhibitory effect on TXA2 synthetase
Male Wistar rats were starved overnight. 500 μL of heparinized (10 U/mL) whole blood was collected from abdominal aorta using polyethylene syringe (needle: 22 or 26 G). The blood freshly drawn from animal was preincubated with 5 μL Of test compound (concentration 10 μM) at 37° C. Five minutes later, 2.5 μL of 6 mM of Ca ionophore A23187 (final concentration of […]) was added into tube, and incubation mixture was further incubated for 15 min. The reaction was terminated by centrifugation of tubes at 12,000 rpm for 2 min. TXB2 content in the supernatant was determined by EIA as follows.
1 mL of 0.5M glycine-HCl buffer (pH 3.2) was added to 100 μL of sample. The samples were mixed well and centrifuged at 1,700 G for 10 min. at 4° C. The extracted supernatant was applied to a SEP-PAK (registered Trade Mark) C18 cartridge (Waters Assoc.). After washing with 10 mL of distilled water followed by 10 mL each of 15% ethanol and petroleum ether, the sample was eluted with 3 mL of ethyl acetate. The ethyl acetate fraction was evaporated to dryness under gentle N2 stream and the residue was dissolved in EIA buffer (final volume of 1 mL) following the addition of […] of 0.01M NaHCO3-NaOH buffer (pH 10.0). EIA for TXB2 was carried out according to a legend attached to the kit (Chyman Chemical Co., inc.) and calculated inhibition percent. Overall recovery of TXB2 in this extraction procedure was 90%..

The term pIC50 denotes the IC50 on a negative log10 scale, so that one unit is a factor of ten. Read a high pIC50 as a small IC50. Take `c1ccc(CNc2ccnc(-n3ccnc3)n2)cc1` [1(a), 2-(1-Imidazolyl)-4-phenylmethylaminopyrimidine]: the pIC50 in experiment [1] was 4.42.

Broadly, the inhibition is the change of the read-out against control, counted positive when it falls. High values mean a response far below the control, low ones a response near the control. `c1ccc(-c2cnc(-n3ccnc3)nc2NCc2ccc3c(c2)OCO3)cc1` [1(bb)] gave a pIC50 in experiment [1] of 7.85. Besides, the inhibition at 10 µM in experiment [2] was 90%.

For `CCc1cnc(-n2ccnc2)nc1NCc1ccccc1` [1(c), 2-(1-Imidazolyl)-5-ethyl-4-phenylmethylaminopyrimidine], the pIC50 in experiment [1] is 5.60.

Turning to `c1ccc(CNc2nc(-n3ccnc3)ncc2Cc2ccccc2)cc1` [1(d), 2-(1-Imidazolyl)-5-phenylmethyl-4-phenylmethylaminopyrimidine], in experiment [1], the pIC50 is 6.00.

On to `Cc1cnc(-n2ccnc2)nc1NCc1ccccc1` [1(e), 2-(1-Imidazolyl)-5-methyl-4-phenylmethylaminopyrimidine], for which the pIC50 in experiment [1] was 4.74.

`Cc1nc(-n2ccnc2)nc(NCc2ccccc2)c1C` [1(f), 2-(1-Imidazolyl)-5,6-dimethyl-4-phenylmethylaminopyrimidine] showed a negative logarithm of the IC50 (pIC50) in experiment [1] of 5.44.

For the compound `COCCNc1nc(-n2ccnc2)ncc1Cc1cccc(OC)c1` [1(g), 2-(1-Imidazolyl)-5-(3-methoxyphenyl)methyl-4-(2-methoxyethyl)aminopyrimidine], in experiment [1], the pIC50 was 5.42.

On to `COc1ccc(Cc2cnc(-n3ccnc3)nc2NCCOCCO)cc1` [1(h), 2-(1-Imidazolyl)-5-(4-methoxyphenyl)methyl-4-[2-(2-hydroxyethoxy)ethyl]aminopyrimidine], for which, in experiment [1], the pIC50 is 6.15. Testing at 10 µM in experiment [2] gave an inhibition of 99%.

Compound `COCCNc1nc(-n2ccnc2)ncc1Cc1ccc(OC)cc1` [1(i), 2-(1-Imidazolyl)-5-(4-methoxyphenyl)methyl-4-(2-methoxyethyl)aminopyrimidine] gave a negative-log IC50 (pIC50) in experiment [1] of 5.46.

`COc1ccc(Cc2cnc(-n3ccnc3)nc2NCc2ccccc2)cc1` [1(j), 2-(1-Imidazolyl)-5-(4-methoxyphenyl)methyl-4-phenylmethylaminopyrimidine] gave a pIC50 in experiment [1] of 6.11. In experiment [2], this compound gave an inhibition at 10 µM of 94%.

In turn, `c1ccc(CNc2nc(-n3ccnc3)ncc2COc2ccccc2)cc1` [1(k), 2-(1-Imidazolyl)-5-phenoxymethyl-4-phenylmethylaminopyrimidine dihydrochloride] showed a negative-log IC50 (pIC50) in experiment [1] of 6.12.

`c1ccc(CNc2nc(-n3ccnc3)ncc2Cn2ccnc2)cc1` [1(l), 2-(1-Imidazolyl)-5-(1-imidazolyl)methyl-4-phenylmethylaminopyrimidine] had a pIC50 in experiment [1] of 4.46. For the same compound, in experiment [2], the inhibition at 10 µM was 63%.

`C=C(Cl)c1cnc(-n2ccnc2)nc1NCc1ccccc1` [1(m), 2-(1-Imidazolyl)-5-(1-chlorovinyl)-4-phenylmethylaminopyrimidine hydrochloride] had a pIC50 in experiment [1] of 5.90.

`c1ccc(CNc2nc(-n3ccnc3)ncc2-c2cccs2)cc1` [1(n), 2-(1-Imidazolyl)-5-(2-thienyl)-4-phenylmethylaminopyrimidine hydrochloride]: in experiment [2], the inhibition at 10 µM stood at 90%.

Compound `c1ccc(CNc2nc(-n3ccnc3)ncc2-c2nccs2)cc1` [1(o), 2-(1-Imidazolyl)-5-(2-thiazolyl)-4-phenylmethylaminopyrimidine hydrochloride] showed a pIC50 in experiment [1] of 6.92. For the same compound, in experiment [2], 10 µM produced 65% inhibition.

The compound `c1csc(-c2cnc(-n3ccnc3)nc2NCc2ccc3c(c2)OCO3)c1` [1(p), 2-(1-Imidazolyl)-5-(2-thienyl)-4-(1,3-dioxaindan-5-yl)methylaminopyrimidine hydrochloride] gave a pIC50 in experiment [1] of 7.60. Also, the inhibition at 10 µM in experiment [2] worked out at 90%.

Take `OCCOCCNc1nc(-n2ccnc2)ncc1-c1cccs1` [1(q), 2-(1-Imidazolyl)-5-(2-thienyl)-4-[2-(2-hydroxyethoxy)ethyl]aminopyrimidine hydrochloride]: the pIC50 in experiment [1] is 4.90. In experiment [2], this compound showed an inhibition at 10 µM of 100%.

Consider `c1csc(-c2cnc(-n3ccnc3)nc2NCc2cccc3ccccc23)c1` [1(r), 2-(1-Imidazolyl)-5-(2-thienyl)-4-(1-naphthyl)methylaminopyrimidine], for which the pIC50 in experiment [1] is 6.46.

In turn, `COc1cccc(CNc2nc(-n3ccnc3)ncc2-c2cccs2)c1` [1(t), 2-(1-Imidazolyl)-5-(2-thienyl)-4-(3-methoxyphenyl)methylaminopyrimidine hydrochloride] gave a pIC50 in experiment [1] of 6.64. The same compound showed an inhibition at 10 µM in experiment [2] of 100%.

In experiment [1], `c1coc(CNc2nc(-n3ccnc3)ncc2-c2cccs2)c1` [1(u), 2-(1-Imidazolyl)-5-(2-thienyl)-4-(2-furyl)methylaminopyrimidine hydrochloride] showed a negative-log IC50 (pIC50) of 6.00. At 10 µM the inhibition in experiment [2] was 96%.

With `c1csc(CNc2nc(-n3ccnc3)ncc2-c2cccs2)c1` [1(v), 2-(1-Imidazolyl)-5-(2-thienyl)-4-(2-thienyl)methylaminopyrimidine hydrochloride], the pIC50 in experiment [1] is 6.51. At 10 µM the inhibition in experiment [2] was 100%.

`c1cncc(CNc2nc(-n3ccnc3)ncc2-c2cccs2)c1` [1(w), 2-(1-Imidazolyl)-5-(2-thienyl)-4-(3-pyridyl)methylaminopyrimidine dihydrochloride] showed a pIC50 in experiment [1] of 5.70. The same compound yielded an inhibition at 10 µM in experiment [2] of 83%.

In the case of `COCCNc1nc(-n2ccnc2)ncc1-c1cccs1` [1(x), 2-(1-Imidazolyl)-5-(2-thienyl)-4-(2-methoxyethyl)aminopyrimidine hydrochloride], the pIC50 in experiment [1] is 5.22. This compound displayed an inhibition at 10 µM in experiment [2] of 87%.

With `c1ccc(CONc2nc(-n3ccnc3)ncc2-c2cccs2)cc1` [1(y), 2-(1-Imidazolyl)-5-(2-thienyl)-4-phenylmethoxyaminopyrimidine hydrochloride], the pIC50 in experiment [1] is 5.57. Further, testing at 10 µM in experiment [2] gave an inhibition of 89%.

As for `Clc1ccc(CNc2nc(-n3ccnc3)ncc2-c2cccs2)cc1` [1(z), 2-(1-Imidazolyl)-5-(2-thienyl)-4-(4-chlorophenyl)methylaminopyrimidine hydrochloride], in experiment [1], the pIC50 is 7.21.

Consider `COc1cccc(Cc2cnc(-n3ccnc3)nc2NCCOCCO)c1` [Example 1, 2-(1-Imidazolyl)-4-[2-(2-hydroxyethoxy)ethyl]amino-5-(3-methoxyphenyl)methylpyrimidine], for which, in experiment [1], the pIC50 was 4.68.

Take `c1cncc(-c2ncc(-c3cccs3)c(NCc3ccc4c(c3)OCO4)n2)c1` [Example 2, 2-(3-Pyridyl)-5-(2-thienyl)-4-(1,3-dioxaindan-5-yl)methylaminopyrimidine hydrochloride]: at 10 µM the inhibition in experiment [2] was 75%.
